Data on 18 compounds can be found in DBAASP.

Converted amounts (≈) assume the structure as drawn. “And” between values parts separate entries of the source, which are not always exact repeats. Identical values can stand only once.

Common to all, as to assay: ≥ marks a high value that may be exact or a test limit, other limits are often not marked, values filed in µg/mL are converted to µM
Experiment [1] has as its system Escherichia coli ATCC 25922.
For experiment [2], the system named is Staphylococcus aureus ATCC 29213.
Experiment [3] relates to Staphylococcus aureus ATCC 25923.
For experiment [4], the system named is Pseudomonas aeruginosa ATCC 27853.
A further experiment relates to Escherichia coli.

As for `CC[C@H](C)[C@H](NC(=O)[C@H](CCCN=C(N)N)NC(=O)[C@H](CCC(N)=O)NC(=O)[C@@H](NC(=O)[C@@H](NC(=O)[C@H](CCCN=C(N)N)NC(=O)[C@H](CCCCN)NC(=O)[C@H](C)N)[C@@H](C)CC)C(C)C)C(=O)N[C@@H](CCCCN)C(=O)N[C@@H](CC(=O)O)C(=O)N[C@@H](Cc1ccccc1)C(=O)N[C@@H](CC(C)C)C(=O)N[C@@H](CCCN=C(N)N)C(=O)O` [AKRIVQRIKDFLR], the figures for the MIC in experiment [1] and in experiment [2] were 10 µM (≈ 16.4 µg/mL) and > 40 µM, respectively.
In the case of `C[C@H](NC(=O)[C@H](Cc1ccccc1)NC(=O)[C@H](C)NC(=O)[C@H](Cc1ccccc1)NC(=O)[C@H](CCCCN)NC(=O)[C@H](C)NC(=O)[C@H](Cc1ccccc1)NC(=O)[C@H](CCCCN)NC(=O)[C@H](CCCCN)NC(=O)[C@H](C)NC(=O)[C@H](Cc1ccccc1)NC(=O)[C@H](CCCCN)NC(=O)[C@H](CCCCN)NC(=O)[C@H](Cc1ccccc1)NC(=O)[C@H](CCCCN)NC(=O)[C@H](CCCCN)NC(=O)[C@H](C)NC(=O)[C@H](Cc1ccccc1)NC(=O)[C@H](CCCCN)NC(=O)[C@H](CCCCN)NC(=O)[C@H](C)NC(=O)[C@@H](N)Cc1ccccc1)C(=O)N[C@@H](Cc1ccccc1)C(N)=O` [FAKKFAKKFKKFAKKFAKFAFAF], the MIC in experiment [1], in experiment [3] and in experiment [4] was 1.44 µM (≈ 4 µg/mL) in each case.
In the case of `CC[C@H](C)[C@H](NC(=O)[C@H](CCCN=C(N)N)NC(=O)[C@H](CCC(N)=O)NC(=O)[C@@H](NC(=O)[C@@H](NC(=O)[C@H](CCCN=C(N)N)NC(=O)[C@H](CCCCN)NC(=O)[C@@H](N)Cc1ccccc1)[C@@H](C)CC)C(C)C)C(=O)N[C@@H](CCCCN)C(=O)N[C@@H](CC(=O)O)C(=O)N[C@@H](CCC(N)=O)C(=O)N[C@@H](CC(C)C)C(=O)N[C@@H](CCCN=C(N)N)C(=O)O` [FKRIVQRIKDQLR], the results for the MIC in experiment [1] and in experiment [2] were 10 µM (≈ 17 µg/mL) and > 40 µM, respectively.
As for `NCC(=O)N[C@@H](CCCN=C(N)N)C(=O)N[C@@H](CCCN=C(N)N)C(=O)N1CCC[C@H]1C(=O)N[C@@H](CCCN=C(N)N)C(=O)N1CCC[C@H]1C(=O)N[C@@H](CCCN=C(N)N)C(=O)N1CCC[C@H]1C(=O)N[C@@H](CCCN=C(N)N)C(=O)N1CCC[C@H]1C(=O)N[C@@H](Cc1ccccc1)C(=O)N[C@@H](Cc1ccccc1)C(=O)N[C@@H](Cc1ccccc1)C(N)=O` [GRRPRPRPRPFFF], the MIC – broadly, the lowest concentration that inhibits growth of the organism – in experiment [1] is 160 µM (≈ 270 µg/mL); in experiment [2], 40 µM (≈ 67.4 µg/mL); in experiment [4], > 160 µM.
Regarding `CC[C@H](C)[C@H](NC(=O)[C@H](CCCCN)NC(=O)[C@H](CO)NC(=O)[C@H](C)NC(=O)[C@H](Cc1c[nH]c2ccccc12)NC(=O)CN)C(=O)NCC(=O)N[C@H](C(=O)N[C@@H](CCC(N)=O)C(=O)N[C@@H](CC(C)C)C(=O)NCC(=O)N[C@@H](CCCCN)C(=O)N[C@@H](CCSC)C(=O)N[C@@H](C)C(=O)N[C@@H](CCCCN)C(=O)N[C@H](C(=O)NCC(=O)N[C@@H](CC(C)C)C(=O)N[C@@H](CCCCN)C(=O)N[C@@H](CCC(=O)O)C(=O)N[C@@H](Cc1ccccc1)C(=O)N[C@H](C(=O)N[C@@H](CCC(N)=O)C(=O)N[C@@H](CO)C(=O)O)C(C)C)C(C)C)[C@@H](C)O` [GWASKIGTQLGKMAKVGLKEFVQS], the figures for the MIC in experiment [1] and in experiment [3] were 100 µM (≈ 256 µg/mL) and 25 µM (≈ 64.1 µg/mL), respectively.
Turning to `CC[C@H](C)[C@H](NC(=O)[C@H](CCCCN)NC(=O)[C@H](C)NC(=O)[C@H](CCSC)NC(=O)[C@@H](NC(=O)[C@H](CCCCN)NC(=O)[C@H](CC(C)C)NC(=O)[C@H](Cc1ccccc1)NC(=O)[C@@H](NC(=O)[C@H](CC(=O)O)NC(=O)CNC(=O)[C@H](Cc1c[nH]c2ccccc12)NC(=O)CN)[C@@H](C)O)[C@@H](C)O)C(=O)N[C@@H](C)C(=O)N[C@@H](CCCCN)C(=O)N[C@H](C(=O)NCC(=O)N1CCC[C@H]1C(=O)N[C@@H](CCCCN)C(=O)N[C@@H](CC(C)C)C(=O)N[C@@H](CC(C)C)C(=O)N[C@@H](Cc1cnc[nH]1)C(=O)N[C@@H](CO)C(=O)O)C(C)C` [GWGDTFLKTMAKIAKVGPKLLHS], in experiment [3], the MIC was > 64 µM and 32 µM.
As for `CSCC[C@H](NC(=O)[C@@H](N)CCCCN)C(=O)N[C@@H](CCCCN)C(=O)N[C@@H](CCCCN)C(=O)N[C@@H](C)C(=O)N[C@@H](CC(C)C)C(=O)N[C@@H](CCC(N)=O)C(=O)N[C@@H](Cc1ccc(O)cc1)C(N)=O` [KMKKALQY], the MIC in experiment [1] and in experiment [4] was > 100 µM in each case.
`CC(C)C[C@H](NC(=O)[C@H](CO)NC(=O)[C@@H](N)CCCCN)C(=O)N[C@H](C(=O)N[C@@H](CCCN=C(N)N)C(=O)N[C@@H](CCCN=C(N)N)C(=O)N[C@@H](Cc1c[nH]c2ccccc12)C(=O)N[C@@H](CCCN=C(N)N)C(=O)N[C@@H](CO)C(=O)N[C@@H](CCCN=C(N)N)C(=O)N[C@@H](Cc1c[nH]c2ccccc12)C(N)=O)C(C)C` [KSLVRRWRSRW]: the MIC in experiment [1] was determined as 30 µM (≈ 45.9 µg/mL); in experiment [3] it was 30 µM (≈ 45.9 µg/mL); in experiment [4] it was 40 µM (≈ 61.2 µg/mL).
Turning to `CC(C)C[C@H](NC(=O)[C@H](CCCCN)NC(=O)[C@H](CC(C)C)NC(=O)[C@H](CC(C)C)NC(=O)[C@H](CCCCN)NC(=O)[C@H](CCCCN)NC(=O)[C@H](C)NC(=O)[C@H](CC(C)C)NC(=O)[C@H](CCCCN)NC(=O)[C@H](CC(C)C)NC(=O)[C@H](CC(C)C)NC(=O)[C@H](CCCCN)NC(=O)[C@H](CCCCN)NC(=O)[C@@H](N)CC(C)C)C(=O)N[C@@H](C)C(=O)NCC(=O)O` [LKKLLKLAKKLLKLAG], the MIC in experiment [1] and in experiment [2] was 5 µM (≈ 8.89 µg/mL) each time.
Consider `CC(C)C[C@H](NC(=O)[C@H](CCCCN)NC(=O)[C@H](C)NC(=O)[C@H](CC(C)C)NC(=O)[C@H](CCCCN)NC(=O)[C@H](CCCCN)NC(=O)[C@H](CC(C)C)NC(=O)[C@H](CC(C)C)NC(=O)[C@H](CCCCN)NC(=O)[C@H](CC(C)C)NC(=O)[C@H](CC(C)C)NC(=O)[C@H](CCCCN)NC(=O)[C@H](CCCCN)NC(=O)[C@@H](N)CC(C)C)C(=O)N[C@@H](C)C(=O)NCC(=O)O` [LKKLLKLLKKLAKLAG], for which the MIC in experiment [1] and in experiment [2] was 10 µM (≈ 17.8 µg/mL) throughout.
Turning to `CC(C)C[C@H](NC(=O)[C@H](Cc1ccccc1)NC(=O)[C@H](C)NC(=O)CNC(=O)[C@H](Cc1c[nH]c2ccccc12)NC(=O)[C@H](CC(N)=O)NC(=O)[C@@H](N)CC(C)C)C(=O)N[C@@H](CCCCN)C(=O)N[C@@H](Cc1cnc[nH]1)C(=O)N[C@@H](Cc1ccccc1)C(=O)N[C@@H](Cc1ccccc1)C(=O)N[C@@H](CCCCN)C(=O)O` [LNWGAFLKHFFK], the MIC in experiment [4] was found to be 32 µM (≈ 48.2 µg/mL). That is a double-digit micromolar value.
In experiment [4], `CC[C@H](C)[C@H](NC(=O)[C@H](C)NC(=O)CNC(=O)[C@H](Cc1c[nH]c2ccccc12)NC(=O)[C@H](CC(N)=O)NC(=O)[C@@H](N)CC(C)C)C(=O)N[C@@H](CCCCN)C(=O)N[C@@H](CCCCN)C(=O)N[C@@H](Cc1cnc[nH]1)C(=O)N[C@H](C(=O)N[C@H](C(=O)N[C@@H](CCCCN)C(=O)O)[C@@H](C)CC)[C@@H](C)CC` [LNWGAIKKHIIK] returned an MIC of 16 µM (≈ 22.7 µg/mL).
Regarding `CC[C@H](C)[C@H](NC(=O)[C@H](Cc1ccc(O)cc1)NC(=O)[C@H](CCC(N)=O)NC(=O)[C@H](CC(C)C)NC(=O)[C@H](C)NC(=O)[C@H](CCCCN)NC(=O)[C@H](CCCCN)NC(=O)[C@@H](N)CCSC)C(=O)N[C@@H](CCCCN)C(=O)N[C@@H](CC(C)C)C(=O)N[C@@H](CC(C)C)C(=O)N[C@@H](CCCCN)C(=O)N[C@@H](CCC(=O)O)C(N)=O` [MKKALQYIKLLKE], the MIC in experiment [1] and in experiment [4] was > 100 µM each time.
For `CC[C@H](C)[C@H](NC(=O)CNC(=O)CNC(=O)[C@H](CC(C)C)NC(=O)[C@H](CC(C)C)NC(=O)[C@H](CO)NC(=O)CNC(=O)[C@@H](NC(=O)[C@H](CC(C)C)NC(=O)[C@@H](N)CC(N)=O)C(C)C)C(=O)N[C@@H](CC(C)C)C(=O)N[C@@H](CCCCN)C(=O)N[C@@H](CCCCN)C(N)=O` [NLVGSLLGGILKK], the figures for the MIC in experiment [1] and in experiment [2] were 457 µM (≈ 600 µg/mL) and > 534 µM, respectively.
As for `CC[C@H](C)[C@H](NC(=O)[C@H](CCCCN)NC(=O)[C@H](C)NC(=O)[C@@H](N)CCC(N)=O)C(=O)N[C@@H](CCCN=C(N)N)C(=O)N[C@H](C(=O)N[C@@H](CCCN=C(N)N)C(=O)N[C@@H](CC(C)C)C(=O)N[C@@H](CO)C(=O)N[C@@H](C)C(=O)O)C(C)C` [QAKIRVRLSA], the MIC was 112 µM (≈ 128 µg/mL) in experiment [1], > 56.1 µM in experiment [2] and 28 µM (≈ 32 µg/mL) in experiment [4].
Regarding `NCCCC[C@H](NC(=O)[C@H](CCCCN)NC(=O)[C@H](CCCN=C(N)N)NC(=O)[C@H](CCCN=C(N)N)NC(=O)[C@H](Cc1c[nH]c2ccccc12)NC(=O)[C@H](Cc1c[nH]c2ccccc12)NC(=O)[C@H](CCCN=C(N)N)NC(=O)[C@H](CCCCN)NC(=O)[C@H](CCCCN)NC(=O)[C@@H](N)CCCN=C(N)N)C(N)=O` [RKKRWWRRKK], the minimum inhibitory concentration (MIC) in experiment [3] is 3 µM and 6 µM; in the experiment with Escherichia coli it was 3 µM and 6 µM.
Take `NC(=O)[C@H](CCCN=C(N)N)NC(=O)[C@H](Cc1c[nH]c2ccccc12)NC(=O)[C@H](CCCN=C(N)N)NC(=O)[C@H](Cc1c[nH]c2ccccc12)NC(=O)[C@@H](N)CCCN=C(N)N` [RWRWR]: the MIC in experiment [1] was 233 µM (≈ 200 µg/mL); in experiment [3], 58.2 µM (≈ 49.9 µg/mL); in experiment [4], 58.2 µM (≈ 49.9 µg/mL).
In the case of `CC(C)C[C@H](NC(=O)[C@H](C)NC(=O)[C@H](Cc1ccc(O)cc1)NC(=O)[C@H](CC(C)C)NC(=O)[C@H](CCCN=C(N)N)NC(=O)[C@H](C)NC(=O)[C@H](CC(C)C)NC(=O)[C@H](CO)NC(=O)[C@H](C)NC(=O)[C@H](CC(C)C)NC(=O)[C@H](CC(=O)O)NC(=O)[C@H](CCCN=C(N)N)NC(=O)[C@H](CCCN=C(N)N)NC(=O)[C@H](CCCN=C(N)N)NC(=O)[C@H](CCC(=O)O)NC(=O)[C@H](CCC(=O)O)NC(=O)[C@H](CO)NC(=O)[C@@H](NC(=O)[C@H](CCC(N)=O)NC(=O)[C@H](Cc1ccc(O)cc1)NC(=O)[C@@H](N)Cc1ccc(O)cc1)C(C)C)C(=O)N[C@@H](C)C(=O)N[C@@H](CCCN=C(N)N)C(N)=O` [YYQVSEERRRDLASLARLYALAR], the MIC in experiment [1] and in experiment [2] was > 250 µM in each case.
